The source made the active and inactive calls. The rule behind the calls is not given here.
Legend:
A549 [1] = test: In vivo inhibition of PI3K/Akt/mTOR in human A549 cells xenografted in athymic nude mouse assessed as decrease in phosphorylation of 4EBP1 at 25 to 50 mg/kg, ip administered once daily for 21 days by Western blot analysis; format: functional, organism-based
[2] = Acute toxicity in SPF Kunming mouse assessed as mortality at 500 to 2000 mg/kg, po administered as single dose measured for 14 days; format: organism-based; settings: in vivo, 336 h
[3] = AUC (0 to 24 hrs) in male Sprague-Dawley rat at 10 mg/kg, po measured up to 24 hrs by LC/MS-MS analysis; format: ADME, organism-based; parameters: time < 24 hr, dose 10 mg/kg, route oral; settings: in vivo
A549 [4] = test: Induction of autophagy in human A549 cells assessed as autophagic bodies formation at 2.5 uM incubated for 48 hrs by transmission electron microscopy; format: functional, cell-based
[5] = Subacute toxicity in SPF Kunming mouse assessed as body weight at 2000 mg/kg, po administered once a day for 7 days (reference value: 28.4g); format: organism-based; settings: in vivo, 168 h
A549 [6] = test: Induction of apoptosis in human A549 cells assessed as decrease in Bcl2 level at 1 to 5 uM incubated for 48 hrs by Western blot analysis; format: functional, cell-based
[7] = Volume of distribution in steady state in male Sprague-Dawley rat at 2 mg/kg, iv measured up to 24 hrs by LC/MS-MS analysis; format: ADME, organism-based; settings: in vivo, read-out: Vdss
[8] = Acute toxicity in SPF Kunming mouse assessed as body weight at 1000 mg/kg, po administered as single dose measured at day 7 (reference value: 30.2g); format: organism-based; settings: in vivo
[9] = Cmax in male Sprague-Dawley rat at 2 mg/kg, iv measured up to 24 hrs by LC/MS-MS analysis; format: ADME, organism-based; parameters: dose 2 mg/kg, route intravenous; settings: in vivo
A549 [10] = test: Inhibition of eIF4E/eIF4G interaction in human A549 cells at 2.5 uM incubated for 24 hrs by proximity ligation assay; format: cell-based
[11] = Inhibition of PI3K/Akt/mTOR signalling pathway in human A549 cells assessed as reduction in mTOR phosphorylation at 1 to 5 uM incubated for 48 hrs by Western blot analysis; format: cell-based
[12] = Cmax in male Sprague-Dawley rat at 10 mg/kg, po measured up to 24 hrs by LC/MS-MS analysis; format: ADME, organism-based; parameters: dose 10 mg/kg, route oral; settings: in vivo
[13] = Half life in female Sprague-Dawley rat at 2 mg/kg, iv measured up to 24 hrs by LC/MS-MS analysis; format: ADME, organism-based; settings: in vivo
A549 [14] = test: Induction of autophagy in human A549 cells assessed as change in ULK1 expression at 1 to 5 uM incubated for 48 hrs by Western blot analysis; format: functional, cell-based
[15] = Inhibition of PI3K/Akt/mTOR signalling pathway in human A549 cells assessed as reduction in PI3K phosphorylation at 1 to 5 uM incubated for 48 hrs by Western blot analysis; format: cell-based
[16] = Half life in male Sprague-Dawley rat at 10 mg/kg, po measured up to 24 hrs by LC/MS-MS analysis; format: ADME, organism-based; settings: in vivo
[17] = Subacute toxicity in SPF Kunming mouse assessed as liver morphological changes at 2000 mg/kg, po administered once a day for 14 days by H and E staining based microscopic analysis; format: organism-based; settings: in vivo, 336 h
A549 [18] = test: Antitumor activity against human A549 cells xenografted in athymic nude mouse assessed as decrease in tumor growth at 25 mg/kg, ip administered once daily for 21 days; format: functional; settings: 504 h
[19] = Half life in male Sprague-Dawley rat at 2 mg/kg, iv measured up to 24 hrs by LC/MS-MS analysis; format: ADME, organism-based; settings: in vivo
A549 [20] = test: In vivo inhibition of eIF4E in human A549 cells xenografted in athymic nude mouse assessed as decrease in phosphorylation of eIF4E at 25 to 50 mg/kg, ip administered once daily for 21 days by immunocytochemistry; format: functional, organism-based
A549 [21] = test: Decrease in phosphorylation of Ki67 in human A549 cells xenografted in athymic nude mouse at 25 to 50 mg/kg, ip administered once daily for 21 days by immunocytochemistry; format: functional, organism-based
[22] = Toxicity in athymic nude mouse xenografted with human A549 cells assessed as effect on spleen morphological changes at 25 to 50 mg/kg, ip administered once daily for 21 days by H and E staining based assay; format: organism-based; settings: in vivo, 504 h
A549 [23] = test: In vivo inhibition of PI3K/Akt/mTOR signalling pathway in human A549 cells xenografted in athymic nude mouse assessed as decrease in phosphorylation of PI3K at 25 to 50 mg/kg, ip administered once daily for 21 days by Western blot analysis; format: functional, organism-based
A549 [24] = test: Antitumor activity against human A549 cells xenografted in athymic nude mouse assessed as decrease in tumor growth at 50 mg/kg, ip administered once daily for 21 days; format: functional; settings: 504 h
[25] = target: Eukaryotic translation initiation factor 4E (Homo sapiens) (UniProt P06730); test: Inhibition of eIF4E phosphorylation in human A549 cells assessed as decrease in cyclin D1 level at 1 to 5 uM incubated for 48 hrs by western blot analysis; format: cell-based
Chain of Eukaryotic translation initiation factor 4E (Homo sapiens) (P06730 whole entry): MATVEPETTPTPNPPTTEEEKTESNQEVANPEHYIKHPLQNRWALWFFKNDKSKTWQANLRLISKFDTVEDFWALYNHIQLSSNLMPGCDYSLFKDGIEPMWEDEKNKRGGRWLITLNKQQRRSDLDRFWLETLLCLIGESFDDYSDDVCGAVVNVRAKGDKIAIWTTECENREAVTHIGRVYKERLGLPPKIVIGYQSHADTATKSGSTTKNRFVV

[26] = AUC (0 to 24 hrs) in female Sprague-Dawley rat at 2 mg/kg, iv measured up to 24 hrs by LC/MS-MS analysis; format: ADME, organism-based; parameters: time < 24 hr, dose 2 mg/kg, route intravenous; settings: in vivo
A549 [27] = test: In vivo inhibition of eIF4E in human A549 cells xenografted in athymic nude mouse assessed as decrease in phosphorylation of eIF4E at 25 to 50 mg/kg, ip administered once daily for 21 days by Western blot analysis; format: functional, organism-based
[28] = Inhibition of PI3K/AKT/mTOR in human A549 cells assessed as decrease in 4EBP1 phosphorylation at 1 to 5 uM incubated for 48 hrs by western blot analysis; format: cell-based
[29] = Acute toxicity in SPF Kunming mouse assessed as body weight at 500 mg/kg, po administered as single dose measured at day 14 (reference value: 34.7g); format: organism-based; settings: in vivo
[30] = MRT in female Sprague-Dawley rat at 10 mg/kg, po measured up to 24 hrs by LC/MS-MS analysis; format: ADME, organism-based; settings: in vivo
[31] = MRT in female Sprague-Dawley rat at 2 mg/kg, iv measured up to 24 hrs by LC/MS-MS analysis; format: ADME, organism-based; settings: in vivo
[32] = Subacute toxicity in SPF Kunming mouse assessed as behavioural abnormalities at 2000 mg/kg, po administered once a day for 14 days; format: organism-based; settings: in vivo, 336 h
A549 [33] = test: In vivo inhibition of PI3K/Akt/mTOR in human A549 cells xenografted in athymic nude mouse assessed as decrease in phosphorylation of 4EBP1 at 25 to 50 mg/kg, ip administered once daily for 21 days by immunocytochemistry; format: functional, organism-based
A549 [34] = test: In vivo inhibition of PI3K/Akt/mTOR signalling pathway in human A549 cells xenografted in athymic nude mouse assessed as decrease in phosphorylation of mTOR at 25 to 50 mg/kg, ip administered once daily for 21 days by Western blot analysis; format: functional, organism-based
A549 [35] = test: Induction of apoptosis in human A549 cells at 1 to 5 uM incubated for 48 hrs by annexin-V and propidium iodide staining based flow cytometric analysis; format: functional, cell-based
[36] = Subacute toxicity in SPF Kunming mouse assessed as kidney morphological changes at 2000 mg/kg, po administered once a day for 14 days by H and E staining based microscopic analysis; format: organism-based; settings: in vivo, 336 h

## Fc1ccc(/C=N/Nc2nc(-c3ccc(C(F)(F)F)cc3)cs2)cc1F
A549 [1]
  inhibition: Active
[2]
  Activity: Non-Toxic
[3]
  AUC(0-t) at 24 h: 5.34 µM·h
A549 [4]
  Activity: Active
[5]
  Activity: 28 g
A549 [6]
  Activity: Active
[7]
  Vd: 0.12 L/kg
[8]
  Activity: 30.5 g
[9]
  Cmax: 149 µM
A549 [10]
  inhibition: Active
[11]
  inhibition: Active
[12]
  Cmax: 0.65 µM
[13]
  half-life: 3.25 h
A549 [14]
  Activity: Active
[15]
  inhibition: Active
[16]
  half-life: 1.27 h
[17]
  Activity: Non-Toxic
A549 [18]
  inhibition in vivo at 25 mg/kg: 62%
[19]
  half-life: 2.83 h
A549 [20]
  inhibition: Active
A549 [21]
  inhibition: Active
[22]
  Activity: Non-Toxic
A549 [23]
  inhibition: Active
A549 [24]
  inhibition in vivo at 50 mg/kg: 75%
[25]
  inhibition: Active
[26]
  AUC(0-t) at 24 h: 133 µM·h
A549 [27]
  inhibition: Active
[28]
  inhibition: Active
[29]
  Activity: 33.3 g
[30]
  MRT: 1.62 h
[31]
  MRT: 5.09 h
[32]
  Activity: Non-Toxic
A549 [33]
  inhibition: Active
A549 [34]
  inhibition: Active
A549 [35]
  Activity: Active
[36]
  Activity: Non-Toxic

Source: ChEMBL document CHEMBL4393720, “Design, synthesis and biological evaluation of bromophenol-thiazolylhydrazone hybrids inhibiting the interaction of translation initiation factors eIF4E/eIF4G as multifunctional agents for cancer treatment” (Eur J Med Chem, 2019)
